According to patent publication US4303785A, “Antitumor anthracycline antibiotics” (priority 1978, dated 1981):
Read-outs that look alike come from different tables or passages of the source.

Test system: L1210 cells
Experiment: animal or person
Format: in vivo, CDF1 mice
Details: for response vs control in vivo at 0.15 mg/kg / response vs control in vivo at 0.31 mg/kg / response vs control in vivo at 0.625 mg/kg / response vs control in vivo at 1.25 mg/kg / response vs control in vivo at 2.5 mg/kg / response vs control in vivo at 5 mg/kg: Mus musculus, L1210, ip, 1080 h; for response vs control in vivo at 1.25 mg/kg: read-out: Antitumor Activity (T/C, prolongation rate of survival day), 1.25 mg/kg/day i.p., once daily for 10 days; for response vs control in vivo at 2.5 mg/kg: read-out: Antitumor Activity (T/C, prolongation rate of survival day), 2.5 mg/kg/day i.p., once daily for 10 days; for response vs control in vivo at 5 mg/kg: read-out: Antitumor Activity (T/C, prolongation rate of survival day), 5 mg/kg/day i.p., once daily for 10 days
Description: D. Representative compounds of general formula I" were tested against experimental animal tumors as follows: […]
CDF1 mice were administered intraperitoneally (i.p.) with 1×10^5 cells/mouse of L1210 cells. After 24 hours had elapsed since inoculation, the mice were administered the test compounds intraperitoneally once daily for 10 consecutive days and observed for a 45 day period.
The antitumor activity was shown by the prolongation rate of survival day (T/C, %) to the survival day of control mice injected with physiological saline.

[1] = read-out: Antitumor Activity (T/C, prolongation rate of survival day), 0.15 mg/kg/day i.p., once daily for 10 days
[2] = read-out: Antitumor Activity (T/C, prolongation rate of survival day), 0.31 mg/kg/day i.p., once daily for 10 days
[3] = read-out: Antitumor Activity (T/C, prolongation rate of survival day), 0.625 mg/kg/day i.p., once daily for 10 days
[4] = 0.15 mg/kg/day i.p., once daily for 10 days
[5] = 0.31 mg/kg/day i.p., once daily for 10 days
[6] = 0.625 mg/kg/day i.p., once daily for 10 days
[7] = 1.25 mg/kg/day i.p., once daily for 10 days
[8] = 2.5 mg/kg/day i.p., once daily for 10 days
[9] = 5 mg/kg/day i.p., once daily for 10 days

SMILES	response vs control in vivo at 0.15 mg/kg [1] [%]	response vs control in vivo at 0.31 mg/kg [2] [%]	response vs control in vivo at 0.625 mg/kg [3] [%]	response vs control in vivo at 1.25 mg/kg [%]	response vs control in vivo at 2.5 mg/kg [%]	response vs control in vivo at 5 mg/kg [%]	Antitumor Activity (T/C, prolongation rate of survival day) [4] [%]	Antitumor Activity (T/C, prolongation rate of survival day) [5] [%]	Antitumor Activity (T/C, prolongation rate of survival day) [6] [%]	Antitumor Activity (T/C, prolongation rate of survival day) [7] [%]	Antitumor Activity (T/C, prolongation rate of survival day) [8] [%]	Antitumor Activity (T/C, prolongation rate of survival day) [9] [%]	response vs control in vivo at 0.15 mg/kg (0.15 mg/kg/day i.p., once daily for 10 days, read-out: Antitumor Activity (T/C, prolongation rate of survival day)) [%]	response vs control in vivo at 0.31 mg/kg (0.31 mg/kg/day i.p., once daily for 10 days, read-out: Antitumor Activity (T/C, prolongation rate of survival day)) [%]	response vs control in vivo at 0.625 mg/kg (0.625 mg/kg/day i.p., once daily for 10 days, read-out: Antitumor Activity (T/C, prolongation rate of survival day)) [%]
COc1cccc2c1C(=O)c1c(O)c3c(c(O)c1C2=O)C[C@@](O)(C(=O)CO)C[C@@H]3O[C@H]1C[C@H](N)[C@H](OC(C)OCCCCCC(C)C)[C@H](C)O1 (single isomer, unassigned) [Example 10-a, 4'-O-(1-(6-methylheptyloxy)ethyl) adriamycin a]	105	92	99	118	125	125	–	–	–	–	–	–	–	–	–
CCCCOC(C)O[C@@H]1[C@H](C)O[C@@H](O[C@H]2C[C@](O)(C(C)=O)Cc3c(O)c4c(c(O)c32)C(=O)c2c(OC)cccc2C4=O)C[C@@H]1N (single isomer, unassigned) [Example 18-b, 4'-O-(1-butyloxyethyl) daunomycin b]	–	–	–	–	–	–	103	96	110	110	151	188	–	–	–
COc1cccc2c1C(=O)c1c(O)c3c(c(O)c1C2=O)C[C@@](O)(C(=O)CO)C[C@@H]3O[C@H]1C[C@H](N)[C@H](OC(C)OCC(C)C)[C@H](C)O1 (single isomer, unassigned) [Example 9-b, 4'-O-(1-isobutyloxyethyl) adriamycin b]	–	–	–	–	–	–	99	118	105	118	158	303	–	–	–
COc1cccc2c1C(=O)c1c(O)c3c(c(O)c1C2=O)C[C@@](O)(C(=O)COC(C)=O)C[C@@H]3O[C@H]1C[C@H](N)[C@H](OC2CCCCO2)[C@H](C)O1 (single isomer, unassigned) [Example 1-b, 14-O-acetyl-4'-O-tetrahydropyranyl adriamycin b]	–	–	–	–	–	–	–	145	184	220	218	241	–	–	–
COc1cccc2c1C(=O)c1c(O)c3c(c(O)c1C2=O)C[C@@](O)(C(=O)CO)C[C@@H]3O[C@H]1C[C@H](N)[C@H](OC2CCCO2)[C@H](C)O1 (stereo partly shown) [Example 4, 4'-O-tetrahydrofuranyl adriamycin]	–	–	–	–	–	–	–	–	–	179	360	314	105	111	136
COc1cccc2c1C(=O)c1c(O)c3c(c(O)c1C2=O)C[C@@](O)(C(=O)CO)C[C@@H]3O[C@H]1C[C@H](N)[C@H](OC(C)OCC(C)C)[C@H](C)O1 (single isomer, unassigned) [Example 9-a, 4'-O-(1-isobutyloxyethyl) adriamycin a]	105	105	112	125	151	–	–	–	–	–	–	257	–	–	–
COc1cccc2c1C(=O)c1c(O)c3c(c(O)c1C2=O)C[C@@](O)(C(C)=O)C[C@@H]3O[C@H]1C[C@H](N)[C@H](OC(C)OCC(C)C)[C@H](C)O1 (single isomer, unassigned) [Example 17-a, 4'-O-(1-isobutyloxyethyl) daunomycin a]	100	100	100	100	119	–	–	–	–	–	–	156	–	–	–
COc1cccc2c1C(=O)c1c(O)c3c(c(O)c1C2=O)C[C@@](O)(C(=O)CO)C[C@@H]3O[C@H]1C[C@H](N)[C@H](OC(C)OC2CCCCC2)[C@H](C)O1 (single isomer, unassigned) [Example 11-b, 4'-O-(1-cyclohexyloxyethyl) adriamycin b]	–	–	–	–	–	–	105	105	105	105	125	145	–	–	–
COc1cccc2c1C(=O)c1c(O)c3c(c(O)c1C2=O)C[C@@](O)(C(=O)COC(C)=O)C[C@@H]3O[C@H]1C[C@H](N)[C@H](OC2CCCCO2)[C@H](C)O1 (single isomer, unassigned) [Example 1-a, 14-O-acetyl-4'-O-tetrahydropyranyl adriamycin a]	–	–	195	228	–	225	–	203	–	–	239	–	–	–	–
COc1cccc2c1C(=O)c1c(O)c3c(c(O)c1C2=O)C[C@@](O)(C(=O)CO)C[C@@H]3O[C@H]1C[C@H](N)[C@H](OC(C)OCCCCCC(C)C)[C@H](C)O1 (single isomer, unassigned) [Example 10-b, 4'-O-(1-(6-methylheptyloxy)ethyl) adriamycin b]	–	–	–	–	–	–	105	105	112	112	105	118	–	–	–
CCCCOC(C)O[C@@H]1[C@H](C)O[C@@H](O[C@H]2C[C@](O)(C(C)=O)Cc3c(O)c4c(c(O)c32)C(=O)c2c(OC)cccc2C4=O)C[C@@H]1N (single isomer, unassigned) [Example 18-a, 4'-O-(1-butyloxyethyl) daunomycin a]	110	103	110	116	–	–	–	–	–	–	116	144	–	–	–
CCOC(C)O[C@@H]1[C@H](C)O[C@@H](O[C@H]2C[C@](O)(C(=O)CO)Cc3c(O)c4c(c(O)c32)C(=O)c2c(OC)cccc2C4=O)C[C@@H]1N (single isomer, unassigned) [Example 7-b, 4'-O-(1-ethyloxyethyl) adriamycin b]	–	–	–	–	–	–	108	108	127	157	151	211	–	–	–
CCCCOC(C)O[C@@H]1[C@H](C)O[C@@H](O[C@H]2C[C@](O)(C(=O)CO)Cc3c(O)c4c(c(O)c32)C(=O)c2c(OC)cccc2C4=O)C[C@@H]1N (single isomer, unassigned) [Example 8-a, 4'-O-(1-butyloxyethyl) adriamycin a]	100	100	119	125	138	–	–	–	–	–	–	163	–	–	–
